ChEMBL document CHEMBL1212738, “Phenotypic and genotypic characterization of Enterobacteriaceae with decreased susceptibility to carbapenems: results from large hospital-based surveillance studies in China” (2010)
Converted amounts (≈) assume the structure as drawn.

How the values were obtained:
[1] = tested on: Klebsiella pneumoniae; assay: Antimicrobial activity against carbapenem-resistant Klebsiella pneumoniae PU8 deficient in SHV-11, DHA-1, aac(6')-Ib-cr, ompK35/36 by CLSI method; assay type: functional
[2] = tested on: Citrobacter freundii; assay: Antimicrobial activity against Citrobacter freundii RJ78 expressing CMY-2, qnrA1, aac(6')-Ib-cr, ompC by CLSI method; assay type: functional
[3] = tested on: Klebsiella pneumoniae; assay: Antimicrobial activity against Klebsiella pneumoniae ZJ18T expressing KPC-2, DHA-1 by CLSI method; assay type: functional
[4] = tested on: Klebsiella pneumoniae; assay: Antimicrobial activity against carbapenem-resistant Klebsiella pneumoniae ZJ69 deficient in SHV-28, ompK35/36 by CLSI method; assay type: functional
[5] = tested on: Escherichia coli; assay: Antimicrobial activity against Escherichia coli PU101T expressing CMY-2 by CLSI method; assay type: functional
[6] = tested on: Klebsiella pneumoniae; assay: Antimicrobial activity against carbapenem-resistant Klebsiella pneumoniae XJ81 deficient in TEM-1, SHV-12, DHA-1, aac(6')-Ib, ompK35/36 by CLSI method; assay type: functional
[7] = tested on: Klebsiella pneumoniae; assay: Antimicrobial activity against carbapenem-resistant Klebsiella pneumoniae GZ66 deficient in SHV-11, DHA-1, ompK35/36 by CLSI method; assay type: functional
[8] = tested on: Klebsiella pneumoniae; assay: Antimicrobial activity against Klebsiella pneumoniae ZJ68T expressing CTX-M-15 by CLSI method; assay type: functional
[9] = tested on: Escherichia coli; assay: Antimicrobial activity against carbapenem-resistant Escherichia coli PU43 deficient in TEM-1, CTX-M-14, aac(6')-Ib, ompC/F by CLSI method; assay type: functional
[10] = tested on: Klebsiella pneumoniae; assay: Antimicrobial activity against Klebsiella pneumoniae ZJ99T expressing KPC-2, CTX-M-3, qnrS1 by CLSI method; assay type: functional
[11] = tested on: Klebsiella pneumoniae; assay: Antimicrobial activity against carbapenem-resistant Klebsiella pneumoniae GZ83 deficient in SHV-11, CTX-M-14, ompK35/36 by CLSI method; assay type: functional
[12] = tested on: Enterobacter cloacae; assay: Antimicrobial activity against carbapenem-resistant Enterobacter cloacae GX56 deficient in ompC and expressing low levels of ompF DE by CLSI method; assay type: functional
[13] = tested on: Klebsiella pneumoniae; assay: Antimicrobial activity against carbapenem-resistant Klebsiella pneumoniae PU3 deficient in DHA-1, aac(6')-Ib-cr, ompK35/36 by CLSI method; assay type: functional
[14] = tested on: Enterobacter cloacae; assay: Antimicrobial activity against carbapenem-resistant Enterobacter cloacae RJ94 deficient in IMP-4, TEM-1, CTX-M-3, ompC by CLSI method; assay type: functional
[15] = tested on: Escherichia coli; assay: Antimicrobial activity against Escherichia coli PU60T expressing CMY-2 by CLSI method; assay type: functional
[16] = tested on: Enterobacter cloacae; assay: Antimicrobial activity against carbapenem-resistant Enterobacter cloacae WH103 deficient in IMP-4, TEM-1, CTX-M-3, qnrS1, ompC by CLSI method; assay type: functional
[17] = tested on: Escherichia coli; assay: Antimicrobial activity against carbapenem-resistant Escherichia coli HX74 deficient in TEM-1, CTX-M-14, CTX-M-3, aac(6')-Ibcr, ompC/F by CLSI method; assay type: functional
[18] = tested on: Enterobacter cloacae; assay: Antimicrobial activity against carbapenem-resistant Enterobacter cloacae GX24 deficient in TEM-1, DHA-1, aac(6')-Ib, ompC by CLSI method; assay type: functional
[19] = tested on: Enterobacter cloacae; assay: Antimicrobial activity against carbapenem-resistant Enterobacter cloacae NJ88 deficient in CTX-M-14, ompC/F by CLSI method; assay type: functional
[20] = tested on: Klebsiella pneumoniae; assay: Antimicrobial activity against carbapenem-resistant Klebsiella pneumoniae PU104 deficient in TEM-1, SHV-11, CTX-M-15, qnrS1, ompK35/36 by CLSI method; assay type: functional
[21] = tested on: Klebsiella pneumoniae; assay: Antimicrobial activity against Klebsiella pneumoniae ZJ71T expressing KPC-2 by CLSI method; assay type: functional
[22] = tested on: Klebsiella pneumoniae; assay: Antimicrobial activity against carbapenem-resistant Klebsiella pneumoniae ZJ71 deficient in KPC-2, TEM-1, SHV-11, CTX-M-14, ompK35 by CLSI method; assay type: functional
[23] = tested on: Klebsiella pneumoniae; assay: Antimicrobial activity against Klebsiella pneumoniae WH77 expressing IMP-4, TEM-1, SHV-14, CTX-M-3, qnrS1 by CLSI method; assay type: functional
[24] = tested on: Klebsiella pneumoniae; assay: Antimicrobial activity against carbapenem-resistant Klebsiella pneumoniae SX67 deficient in SHV-2, CTX-M-14, DHA-1, qnrB6/S1, aac(6')-Ib-cr, ompK35/36 by CLSI method; assay type: functional
[25] = tested on: Klebsiella pneumoniae; assay: Antimicrobial activity against carbapenem-resistant Klebsiella pneumoniae FZ49 deficient in IMP-8, TEM-1, SHV-11, CTX-M-14, qnrB2, aac(6')-Ib, ompK35/36 by CLSI method; assay type: functional
[26] = tested on: Escherichia coli; assay: Antimicrobial activity against Escherichia coli C600 transconjugant XJ81T expressing TEM-1, SHV-12, aac(6')-Ib by CLSI method
[27] = tested on: Klebsiella pneumoniae; assay: Antimicrobial activity against Klebsiella pneumoniae FZ47T expressing IMP-8, TEM-1, CTX-M-14, qnrB2, aac(6')-Ib by CLSI method; assay type: functional
[28] = tested on: Citrobacter freundii; assay: Antimicrobial activity against Citrobacter freundii SZ62 expressing IMP-4, TEM-1, CMY-2, qnrS1, aac(6')-Ib-cr by CLSI method; assay type: functional
[29] = tested on: Escherichia coli; assay: Antimicrobial activity against carbapenem-resistant Escherichia coli PU60 deficient in TEM-1, CMY-2, ompC/F by CLSI method; assay type: functional
[30] = tested on: Enterobacter cloacae; assay: Antimicrobial activity against carbapenem-resistant Enterobacter cloacae NJ89 deficient in CTX-M-14, ompC/F by CLSI method; assay type: functional
[31] = tested on: Escherichia coli; assay: Antimicrobial activity against Escherichia coli C600 transconjugant WH76T expressing IMP-4, TEM-1, CTX-M-3, qnrS1 by CLSI method

SMILES	MIC [1]	MIC [2]	MIC [3]	MIC [4]	MIC [5]	MIC [6]	MIC [7]	MIC [8]	MIC [9]	MIC [10]	MIC [11]	MIC [12]	MIC [13]	MIC [14]	MIC [15]	MIC [16]	MIC [17]	MIC [18]	MIC [19]	MIC [20]	further results
NCC[C@H](O)C(=O)N[C@@H]1C[C@H](N)[C@@H](O[C@H]2O[C@H](CN)[C@@H](O)[C@H](O)[C@H]2O)[C@H](O)[C@H]1O[C@H]1O[C@H](CO)[C@@H](O)[C@H](N)[C@H]1O [AMIKACIN]	8 µg/mL (≈ 13.7 µM)	8 µg/mL (≈ 13.7 µM)	> 256 µg/mL	> 256 µg/mL	1 µg/mL (≈ 1.71 µM)	16 µg/mL (≈ 27.3 µM)	> 256 µg/mL	> 256 µg/mL	8 µg/mL (≈ 13.7 µM)	2 µg/mL (≈ 3.42 µM)	> 256 µg/mL	> 256 µg/mL	16 µg/mL (≈ 27.3 µM)	0.5 µg/mL (≈ 0.854 µM)	1 µg/mL (≈ 1.71 µM)	1 µg/mL (≈ 1.71 µM)	8 µg/mL (≈ 13.7 µM)	> 256 µg/mL	> 256 µg/mL	0.5 µg/mL (≈ 0.854 µM)	MIC [21]: 1 µg/mL (≈ 1.71 µM); MIC [22]: > 256 µg/mL; MIC [23]: 1 µg/mL (≈ 1.71 µM); MIC [24]: > 256 µg/mL; MIC [25]: > 256 µg/mL; MIC [26]: 16 µg/mL (≈ 27.3 µM); MIC [27]: > 256 µg/mL; MIC [28]: > 256 µg/mL; MIC [29]: 32 µg/mL (≈ 54.6 µM); MIC [30]: > 256 µg/mL; MIC [31]: 1 µg/mL (≈ 1.71 µM)
C[C@@H](O)[C@H]1C(=O)N2C(C(=O)O)=C(SCCNC=N)C[C@H]12 [IMIPENEM ANHYDROUS]	16 µg/mL (≈ 53.4 µM)	8 µg/mL (≈ 26.7 µM)	2 µg/mL (≈ 6.68 µM)	32 µg/mL (≈ 107 µM)	0.25 µg/mL (≈ 0.835 µM)	8 µg/mL (≈ 26.7 µM)	32 µg/mL (≈ 107 µM)	0.5 µg/mL (≈ 1.67 µM)	8 µg/mL (≈ 26.7 µM)	16 µg/mL (≈ 53.4 µM)	32 µg/mL (≈ 107 µM)	4 µg/mL (≈ 13.4 µM)	32 µg/mL (≈ 107 µM)	8 µg/mL (≈ 26.7 µM)	0.5 µg/mL (≈ 1.67 µM)	8 µg/mL (≈ 26.7 µM)	4 µg/mL (≈ 13.4 µM)	4 µg/mL (≈ 13.4 µM)	16 µg/mL (≈ 53.4 µM)	2 µg/mL (≈ 6.68 µM)	MIC [21]: 8 µg/mL (≈ 26.7 µM); MIC [22]: 16 µg/mL (≈ 53.4 µM); MIC [23]: 2 µg/mL (≈ 6.68 µM); MIC [24]: 4 µg/mL (≈ 13.4 µM); MIC [25]: 8 µg/mL (≈ 26.7 µM); MIC [26]: 0.25 µg/mL (≈ 0.835 µM); MIC [27]: 4 µg/mL (≈ 13.4 µM); MIC [28]: 4 µg/mL (≈ 13.4 µM); MIC [29]: 32 µg/mL (≈ 107 µM); MIC [30]: 16 µg/mL (≈ 53.4 µM); MIC [31]: 4 µg/mL (≈ 13.4 µM)
CC(C)(O/N=C(\C(=O)N[C@@H]1C(=O)N2C(C(=O)[O-])=C(C[n+]3ccccc3)CS[C@H]12)c1csc(N)n1)C(=O)O [CEFTAZIDIME]	256 µg/mL (≈ 468 µM)	128 µg/mL (≈ 234 µM)	16 µg/mL (≈ 29.3 µM)	128 µg/mL (≈ 234 µM)	> 256 µg/mL	> 256 µg/mL	> 256 µg/mL	256 µg/mL (≈ 468 µM)	32 µg/mL (≈ 58.5 µM)	128 µg/mL (≈ 234 µM)	> 256 µg/mL	256 µg/mL (≈ 468 µM)	128 µg/mL (≈ 234 µM)	> 256 µg/mL	64 µg/mL (≈ 117 µM)	> 256 µg/mL	256 µg/mL (≈ 468 µM)	> 256 µg/mL	> 256 µg/mL	> 256 µg/mL	MIC [21]: 32 µg/mL (≈ 58.5 µM); MIC [22]: 32 µg/mL (≈ 58.5 µM); MIC [23]: 256 µg/mL (≈ 468 µM); MIC [24]: > 256 µg/mL; MIC [25]: > 256 µg/mL; MIC [26]: 64 µg/mL (≈ 117 µM); MIC [27]: > 256 µg/mL; MIC [28]: > 256 µg/mL; MIC [29]: 256 µg/mL (≈ 468 µM); MIC [30]: > 256 µg/mL; MIC [31]: > 256 µg/mL
